Laboratory results published in patent US9642921B2, “Cancer combination therapy and recombinant vectors” (Tocagen Inc., priority 2012, dated 2017).

Key:
[1] = system: five glioma cell lines (U-87MG, LN-18, LN-229, 8-MG-BA, Tu-2449); type: cell-based, human and mouse
Method: (§1) Two different TMZ schedules were tested. To test the effect of preincubation with TMZ, cells were seeded at a density of 1×10^5 cells per well on six-well plates. After 24 h, different concentrations of TMZ were added to the cells. The next day, cells were infected with RRV-GFP vector at a multiplicity of infection of 0.1. To test the effect of concomitant TMZ, cells were seeded at a density of 1×10^5 cells per well on six-well plates. After 48 h, cells were infected with RRV-GFP vector at a multiplicity of infection of 0.1 in the presence of different concentrations of TMZ. The following day, cells were transferred to T25 flasks keeping the indicated TMZ concentration. Cells were analyzed three times a week by enhanced green fluorescent protein fluorescence-activated cell sorting analysis for virus spread, maintaining the indicated TMZ concentration during the entire experiment.
(§2) To test any possible effect of TMZ on the spread of Toca 511, the same panel of glioma cells was treated with different concentrations of TMZ depending on the TMZ sensitivity of the cells determined in the clonogenic assay in FIG. 1b. In addition, vector with the same backbone as Toca 511 but encoding a GFP transgene (RRV-GFP) was used to assess vector spread by fluorescence-activated cell sorting analysis. Two TMZ treatment schedules were tested. […]

[2] = system: 8-MG-BA; assay: In vitro RRV-GFP spread (FACS); type: cell-based, human; details: 1 and 2 mgml^−1 TMZ added 24 h before RRV-GFP, by day 16
Method: as §1
(§3) To test any possible effect of TMZ on the spread of Toca 511, the same panel of glioma cells was treated with different concentrations of TMZ depending on the TMZ sensitivity of the cells determined in the clonogenic assay in FIG. 1b. In addition, vector with the same backbone as Toca 511 but encoding a GFP transgene (RRV-GFP) was used to assess vector spread by fluorescence-activated cell sorting analysis. Two TMZ treatment schedules were tested. The first schedule tested treatment with varying concentrations of TMZ before and during the time of vector infection, and the second schedule tested treatment with varying concentrations of TMZ at the same time as the addition of vector. In the first schedule, glioma cells were incubated with different concentrations of TMZ 24 h before the addition of RRVGFP at a multiplicity of infection of 0.1. […] There was an initial lag or decrease in GFP positivity at earlier time points (FIG. 2a). […] In the second schedule, when TMZ and RRV-GFP were added to the glioma cells concomitantly, the same trend was observed; after an initial lag, cells reached nearly 100% GFP positivity in the presence of TMZ (FIG. 2b). The observed infectivity lag was likely due to induction of apoptosis in a certain percentage of cells with TMZ treatment. Surviving cells were still susceptible to infection with RRV-GFP and able to produce more RRV-GFP virus for further infection and spread within the culture dish. […] Rather the data is consistent with the conclusion that slowing of tumor cell replication with the anticancer drug TMZ, slows the replication of the RRV because of the inhibition of cancer cell replication and the requirement for cell replication for productive infection with RRV.

[3] = system: LN-18; assay: In vitro RRV-GFP spread (FACS); type: cell-based, human; details: TMZ up to 20 mgml^−1 added 24 h before RRV-GFP, by day 19
Method: as §1, §3

[4] = system: LN-229; assay: In vitro RRV-GFP spread (FACS); type: cell-based, human; details: 1 and 2 mgml^−1 TMZ added 24 h before RRV-GFP, by day 16
Method: as §1, §3

[5] = system: U-87MG; assay: In vitro RRV-GFP spread (FACS); type: cell-based, human; details: 10 mgml^−1 of TMZ
Method: as §1, §3

[6] = system: Tu-2449; assay: In vitro RRV-GFP spread (FACS); type: cell-based, mouse; details: TMZ up to 20 mgml^−1 added 24 h before RRV-GFP, by day 19
Method: as §1, §2

[7] = Dose finding study 5-FC and TMZ, hematological examination, healthy B6C3/F1 mice; type: in vivo, mouse
Method: A dose finding study was conducted in healthy B6C3/F1 hybrid mice to evaluate the clinical effects and possible hematological changes during concomitant administration of 5-FC and TMZ. Both drugs are known to cause hematological toxicity in some circumstances and therefore it is important to examine any potential drug interaction with respect to this potentially toxic side effect. Three concentrations of TMZ (25, 60 and 125 mgkg^−1) in combination with a fixed dose of 5-FC (500 mgkg^−1 per dose) were administered intraperitoneal SID for 4 consecutive days starting on days 1, 8, 22 and 36. Mice were terminated on day 51 for hematological examination.

[8] = Dose finding study 5-FC and TMZ, hematological examination, healthy athymic mice; type: in vivo, mouse
Method: To test the effect of the combination therapy of TMZ and Toca 511+5-FC treatment in a TMZ-sensitive cell line in vivo, the U-87MG cell line was used in an orthotopic xenograft glioma model in immunocompromised mice. A similar TMZ dose finding study as for the C3B6F1-immunocompetent mice was conducted in healthy athymic mice to evaluate the clinical effects and possible hematological changes during concomitant administration of 5-FC and TMZ. Two concentrations of TMZ (25 and 60 mgkg^−1) in combination with a fixed dose of 5-FC (500 mgkg^−1 per dose) were administered intraperitoneal SID for 4 consecutive days starting on days 1, 15, 29 and 43. Mice were terminated on day 53 for hematological examination.

[9] = system: U-87MG cells (naive and Toca 511-transduced); assay: In vitro 5-FC sensitivity assay (XTT viability); type: cell-based, human; details: day 6
Method: (§4) Tu-2449 and U-87MG cells were infected with ˜1×10^4 transducing units (TU) ml^−1 of Toca 511 in the presence of polybrene (8 mgml^−1). Cells were passaged 2-3 times a week for 17 days. […] Cells were seeded on day 0 at a concentration of 1×10^3 cells per well of a 96-well plate in […] of culture medium (Dulbecco's modified Eagle's mediump10% fetal calf serum+gentamicin (17 mg per 100 ml)). On day 1, […] of culture medium containing 5-FC (range 0-1000 mgml^−1), TMZ (range 0-100 mgml^−1) or both drugs (5-FC (range 0-1.6 mgml^−1) and TMZ (2 mgml^−1)) was added to the cells. Viability was measured on day 6 using Cell Proliferation Kit II (XTT) (Roche, Indianapolis, Ind., USA) as recommended by the manufacturer.
(§5) Two glioma lines U-87MG (TMZ-sensitive) and Tu-2449 (TMZ-resistant) were chosen to examine the compatibility of TMZ and Toca 511p5-FC treatment in previously infected cells. These two cell lines were cultured as either non-transduced control or 100% Toca 511-transduced cells. Sensitivity to 5-FC was examined by measuring cell viability after culture in increasing amounts of 5-FC. […] In addition, cell viability was examined in the nontransduced and transduced cell lines treated with increasing amounts of TMZ.

[10] = system: Tu-2449 cells (naive and Toca 511-transduced); assay: In vitro 5-FC sensitivity assay (XTT viability); type: cell-based, mouse; details: day 6
Method: as §4, §5

[11] = system: human NET cell lines; details: capecitabine and TMZ in human NET cell lines; cited from earlier work
[12] = pharmacokinetic studies; cited from earlier work
[13] = highest TMZ dose (125 mgm^−2) coadministered with 5-FC

Cn1nnc2c(C(N)=O)ncn2c1=O [TMZ, Temozolomide]
GFP positivity [1]: ~100%
GFP positivity [2]: 100%
GFP positivity [3]: ~100%
GFP positivity [4]: 100%
cells killed [5]: ~90%
GFP positivity [6]: ~100%
hematological changes ([7]; TMZ 25 mgkg^−1 per day (human equivalent of 75 mgm^−2) with 5-FC 500 mgkg^−1 per dose): without significant hematological changes
leukocytes [7, 13]: almost complete loss
platelet counts [7, 13]: significant reduction
hematological changes ([8]; TMZ 60 mgkg^−1 (human equivalent of 200 mgm^−2) in combination with 5-FC): substantially severe hematological changes (leukocytopenia, thrombocytopenia)
increase in ALT activity ([8]; TMZ 60 mgkg^−1 in combination with 5-FC): five fold increase
changes in hematological parameters ([8]; lower TMZ dose of 25 mgkg^−1 in combination with 5-FC): mild changes

Nc1nc(=O)[nH]cc1F [5-FC, 5-fluorocytosine]
sensitivity to 5-FC (cell viability) ([9]; Toca 511-transduced U-87MG): sensitive to 5-FC in a dose-dependent manner
sensitivity to 5-FC (cell viability) ([9]; naive (non-transduced) U-87MG, up to 100 mgml^−1 5-FC): highly resistant
sensitivity to 5-FC (cell viability) ([10]; Toca 511-transduced Tu-2449): sensitive to 5-FC in a dose-dependent manner
sensitivity to 5-FC (cell viability) ([10]; naive (non-transduced) Tu-2449, up to 100 mgml^−1 5-FC): highly resistant

CCCCCOC(=O)Nc1nc(=O)n([C@@H]2O[C@H](C)[C@@H](O)[C@H]2O)cc1F [capecitabine]
induction of apoptosis, combination effect [11]: synergistic

O=c1[nH]cc(F)c(=O)[nH]1 [5-FU, 5-fluorouracil]
blood brain barrier passage [12]: crosses the blood brain barrier
